Results reported in patent US20240217957A1, “HETEROCYCLIC COMPOUND AND USE THEREOF” (TAKEDA PHARMACEUTICAL COMPANY LIMITED, priority 2022, published 2024).

Biological target: T1, human OX2 receptor (Homo sapiens, UniProt O43614)
T1 construct: expressed in transfected cells
T1 sequence (O43614 1-444): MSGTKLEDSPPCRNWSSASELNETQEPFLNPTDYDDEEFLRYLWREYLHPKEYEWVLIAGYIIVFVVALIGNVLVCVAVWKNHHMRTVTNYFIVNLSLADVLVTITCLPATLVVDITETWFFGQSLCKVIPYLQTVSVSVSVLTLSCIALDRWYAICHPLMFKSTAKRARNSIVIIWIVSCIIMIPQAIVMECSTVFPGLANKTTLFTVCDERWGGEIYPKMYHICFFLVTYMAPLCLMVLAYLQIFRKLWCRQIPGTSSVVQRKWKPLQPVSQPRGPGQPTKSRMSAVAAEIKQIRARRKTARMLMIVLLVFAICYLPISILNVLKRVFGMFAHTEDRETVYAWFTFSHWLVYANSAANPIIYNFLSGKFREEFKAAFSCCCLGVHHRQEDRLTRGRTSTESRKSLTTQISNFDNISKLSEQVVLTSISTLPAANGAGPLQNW
Assay: Measurement of orexin type 2 receptor agonist activity (calcium fluorescence, Fluo-4 AM, FDSS)
Type: cell-based
Conditions: compound at 3 μM; CHO cells forcibly expressing human OX2 receptor; DMSO = 0%, 10 nM orexin A (human) = 100%
Protocol: In order to obtain cell clones that stably express human orexin type 2 receptor, human orexin type 2 (residues 1-444, NCBI Reference Sequence: AK314279) was constructed in a pcDNA3.1 (+) vector (Invitrogen) to express in mammalian cells. This plasmid DNA was transfected into CHO-K1 cells by electroporation, and stable clones were obtained by limiting dilution using resistance to G418 as a selection marker.
CHO cells in which human OX2 receptor was forcibly expressed were seeded at 10,000 cells/well into a 384-well black transparent bottom plate (BD falcon), and were incubated at 37° C., 5% CO2 for 1 day after incubation at room temperature for 30 minutes. After removing the cell plate medium, assay buffer containing calcium indicator A (HBSS (Thermo Fisher Scientific), 20 mM HEPES (Thermo Fisher Scientific), 0.1% BSA (Sigma-Aldrich), 2.5 μg/mL Fluo-4 AM (Dojin Kagaku), 0.08% Pluronic F127 (Dojin Kagaku), 1.25 mM probenecid (Dojin Kagaku)) was added at 30 μL/well. After incubation in a 5% CO2 incubator at 37° C. for 30 minutes, it was incubated at room temperature for another 30 minutes. Add 10 μL/well of the test compound diluted with assay buffer B (HBSS, 20 mM HEPES, 0.1% BSA), and use FDSS uCELL (Hamamatsu Photonics) to measure the fluorescence value every 1 second for 1 minute, and then every 2 seconds for […]. It was measured for 1 minute and 40 seconds. The amount of fluorescence value when DMSO is added instead of the test compound is defined as 0%, and the amount of fluorescence value when orexin A (human) (Peptide Institute) with a final concentration of 10 nM is added is defined as 100%. The activity (%) of the test compound was calculated.

| Compound | OX2R agonist activity (3 μM, %) [%] |
| --- | --- |
| Cc1cnc([C@@H]2CC(N3C[C@@H](NS(C)(=O)=O)[C@@](C)(F)C3)=NO2)c(-c2c(F)cccc2F)c1 (mixture of isomers) [Example 51, mixture of N-[(3R,4S)-1-{(5S)-5-[3-(2,6-difluorophenyl)-5-methylpyridin-2-yl]-4,5-dihydro-1,2-oxazol-3-yl}-4-fluoro-4-methylpyrrolidin-3-yl]methanesulfonamide and N-[(3S,4R)-1-{(5S)-5-[3-(2,6-difluorophenyl)-5-methylpyridin-2-yl]-4,5-dihydro-1,2-oxazol-3-yl}-4-fluoro-4-methylpyrrolidin-3-yl]methanesulfonamide] | 99 |
| Cc1cnc([C@@H]2CC(O[C@@H]3CC[C@H](NS(C)(=O)=O)C3)=NO2)c(-c2c(F)cc(F)cc2F)c1 (mixture of isomers) [Example 62, mixture of N-[(1R,3S)-3-({(5S)-5-[5-methyl-3-(2,4,6-trifluorophenyl)pyridin-2-yl]-4,5-dihydro-1,2-oxazol-3-yl}oxy)cyclopentyl]methanesulfonamide and N-[(1S,3R)-3-({(5S)-5-[5-methyl-3-(2,4,6-trifluorophenyl)pyridin-2-yl]-4,5-dihydro-1,2-oxazol-3-yl}oxy)cyclopentyl]methanesulfonamide] | 17 |
| Cc1cnc([C@@H]2CC(N3C[C@@H](C)[C@H](NS(C)(=O)=O)C3)=NO2)c(-c2c(F)cccc2F)c1 (single isomer, unassigned) [Example 71, optical isomer of N-[(3S,4R)-1-{(5S)-5-[3-(2,6-difluorophenyl)-5-methylpyridin-2-yl]-4,5-dihydro-1,2-oxazol-3-yl}-4-methylpyrrolidin-3-yl]methanesulfonamide or N-[(3R,4S)-1-{(5S)-5-[3-(2,6-difluorophenyl)-5-methylpyridin-2-yl]-4,5-dihydro-1,2-oxazol-3-yl}-4-methylpyrrolidin-3-yl]methanesulfonamide] | 108 |
| Cc1cnc([C@@H]2CC(N3C[C@@H](NS(C)(=O)=O)[C@@](C)(F)C3)=NO2)c(-c2c(F)cc(F)cc2F)c1 (single isomer, unassigned) [Example 75, optical isomer of N-[(3R,4S)-4-fluoro-4-methyl-1-{(5S)-5-[5-methyl-3-(2,4,6-trifluorophenyl)pyridin-2-yl]-4,5-dihydro-1,2-oxazol-3-yl}pyrrolidin-3-yl]methanesulfonamide or N-[(3S,4R)-4-fluoro-4-methyl-1-{(5S)-5-[5-methyl-3-(2,4,6-trifluorophenyl)pyridin-2-yl]-4,5-dihydro-1,2-oxazol-3-yl}pyrrolidin-3-yl]methanesulfonamide] | 105 |
| Cc1cnc([C@@H]2CC(N3C[C@H](F)[C@H](NS(=O)(=O)C4(F)CC4)C3)=NO2)c(-c2c(F)cc(F)cc2F)c1 (single isomer, unassigned) [Example 107, optical isomer of 1-fluoro-N-[(3R,4S)-4-fluoro-1-{(5S)-5-[5-methyl-3-(2,4,6-trifluorophenyl)pyridin-2-yl]-4,5-dihydro-1,2-oxazol-3-yl}pyrrolidin-3-yl]cyclopropane-1-sulfonamide or 1-fluoro-N-[(3S,4R)-4-fluoro-1-{(5S)-5-[5-methyl-3-(2,4,6-trifluorophenyl)pyridin-2-yl]-4,5-dihydro-1,2-oxazol-3-yl}pyrrolidin-3-yl]cyclopropane-1-sulfonamide] | 98 |
| Cc1cnc([C@@H]2CC(N3C[C@H](F)[C@H](NS(=O)(=O)C4(F)CC4)C3)=NO2)c(-c2c(F)cccc2F)c1 (single isomer, unassigned) [Example 117, optical isomer of N-[(3R,4S)-1-{(5S)-5-[3-(2,6-difluorophenyl)-5-methylpyridin-2-yl]-4,5-dihydro-1,2-oxazol-3-yl}-4-fluoropyrrolidin-3-yl]-1-fluorocyclopropane-1-sulfonamide or N-[(3S,4R)-1-{(5S)-5-[3-(2,6-difluorophenyl)-5-methylpyridin-2-yl]-4,5-dihydro-1,2-oxazol-3-yl}-4-fluoropyrrolidin-3-yl]-1-fluorocyclopropane-1-sulfonamide] | 105 |
| C[C@]1(F)CN(C2=NOC(c3c(F)cccc3-c3c(F)cccc3F)C2)C[C@H]1NS(C)(=O)=O (single isomer, unassigned) [Example 155, N-{(3R,4S)-4-fluoro-4-methyl-1-[5-(2′,3,6′-trifluoro[1,1′-biphenyl]-2-yl)-4,5-dihydro-1,2-oxazol-3-yl]pyrrolidin-3-yl}methanesulfonamide or N-{(3S,4R)-4-fluoro-4-methyl-1-[5-(2′,3,6′-trifluoro[1,1′-biphenyl]-2-yl)-4,5-dihydro-1,2-oxazol-3-yl]pyrrolidin-3-yl)methanesulfonamide] | 99 |
| C[C@]1(F)CN(C2=NOC(c3c(F)cc(F)cc3-c3c(F)cccc3F)C2)C[C@H]1NS(C)(=O)=O (single isomer, unassigned) [Example 164] | 97 |
| C[C@]1(F)CN(C2=NOC(c3c(F)ccc(F)c3-c3c(F)cccc3F)C2)C[C@H]1NS(C)(=O)=O (single isomer, unassigned) [Example 168] | 103 |
| CS(=O)(=O)N[C@H]1CCN(C2=NOC(c3ccccc3-c3c(F)cccc3F)C2)C1 (stereo partly drawn) [Example 1, N-{(3S)-1-[5-(2′,6′-difluoro[1,1′-biphenyl]-2-yl)-4,5-dihydro-1,2-oxazol-3-yl]pyrrolidin-3-yl}methanesulfonamide] | 103 |
| CS(=O)(=O)N[C@H]1CCN(C2=NOC(c3ccccc3C3=CCCCC3)C2)C1 (stereo partly drawn) [Example 2, N-{(3S)-1-[5-(2′,3′,4′,5′-tetrahydro[1,1′-biphenyl]-2-yl)-4,5-dihydro-1,2-oxazol-3-yl]pyrrolidin-3-yl}methanesulfonamide] | 77 |
| CCS(=O)(=O)N[C@H]1CCN(C2=NOC(c3ccccc3-c3c(F)cccc3F)C2)C1 (stereo partly drawn) [Example 3, N-{(3S)-1-[5-(2′,6′-difluoro[1,1′-biphenyl]-2-yl)-4,5-dihydro-1,2-oxazol-3-yl]pyrrolidin-3-yl}ethanesulfonamide] | 95 |
| CS(=O)(=O)N[C@@H]1CN(C2=NOC(c3ccccc3-c3c(F)cccc3F)C2)CC1(F)F (stereo partly drawn) [Example 4, N-{(3R)-1-[5-(2′,6′-difluoro[1,1′-biphenyl]-2-yl)-4,5-dihydro-1,2-oxazol-3-yl]-4,4-difluoropyrrolidin-3-yl}methanesulfonamide] | 104 |
| CS(=O)(=O)N[C@H]1CCCN(C2=NOC(c3ccccc3-c3c(F)cccc3F)C2)CC1 (stereo partly drawn) [Example 5, N-{(4S)-1-[5-(2′,6′-difluoro[1,1′-biphenyl]-2-yl)-4,5-dihydro-1,2-oxazol-3-yl]azepan-4-yl}methanesulfonamide] | 106 |
| CS(=O)(=O)N[C@H]1CCCN(C2=NOC(c3ccccc3-c3c(F)cccc3F)C2)C1 (stereo partly drawn) [Example 6, N-{(3S)-1-[5-(2′,6′-difluoro[1,1′-biphenyl]-2-yl)-4,5-dihydro-1,2-oxazol-3-yl]piperidin-3-yl}methanesulfonamide] | 98 |
| CS(=O)(=O)NC1CCN(C2=NOC(c3ccccc3-c3c(F)cccc3F)C2)CC1 (stereo not drawn) [Example 7, N-{1-[5-(2′,6′-difluoro[1,1′-biphenyl]-2-yl)-4,5-dihydro-1,2-oxazol-3-yl]piperidin-4-yl}methanesulfonamide] | 53 |
| CCS(=O)(=O)N[C@H]1CCN(C2=NOC(c3ccc(C)cc3-c3c(F)cccc3F)C2)C1 (stereo partly drawn) [Example 8, N-{(3S)-1-[5-(2′,6′-difluoro-5-methyl[1,1′-biphenyl]-2-yl)-4,5-dihydro-1,2-oxazol-3-yl]pyrrolidin-3-yl}ethanesulfonamide] | 104 |
| CCS(=O)(=O)N[C@H]1CCN(C2=NOC(c3cc(C(F)(F)F)nn3-c3c(F)cccc3F)C2)C1 (stereo partly drawn) [Example 9, N-[(3S)-1-{5-[1-(2,6-difluorophenyl)-3-(trifluoromethyl)-1H-pyrazol-5-yl]-4,5-dihydro-1,2-oxazol-3-yl}pyrrolidin-3-yl]ethanesulfonamide] | 13 |
